According to ChEMBL document CHEMBL1201862, “PubChem BioAssay data set” (2004):
The source made the active and inactive calls.

Key:
[1] = biological target: Cytochrome P450 2C19 (Homo sapiens, UniProt P33261); test: Cytochrome panel assay with activity outcomes. Panel member name: p450-cyp2c19 Compounds with AC50 equal or less than 10 uM are considered active; type: functional
[2] = biological target: T1, Cytochrome P450 1A2 (Homo sapiens, UniProt P05177)
T1 sequence (P05177 whole entry): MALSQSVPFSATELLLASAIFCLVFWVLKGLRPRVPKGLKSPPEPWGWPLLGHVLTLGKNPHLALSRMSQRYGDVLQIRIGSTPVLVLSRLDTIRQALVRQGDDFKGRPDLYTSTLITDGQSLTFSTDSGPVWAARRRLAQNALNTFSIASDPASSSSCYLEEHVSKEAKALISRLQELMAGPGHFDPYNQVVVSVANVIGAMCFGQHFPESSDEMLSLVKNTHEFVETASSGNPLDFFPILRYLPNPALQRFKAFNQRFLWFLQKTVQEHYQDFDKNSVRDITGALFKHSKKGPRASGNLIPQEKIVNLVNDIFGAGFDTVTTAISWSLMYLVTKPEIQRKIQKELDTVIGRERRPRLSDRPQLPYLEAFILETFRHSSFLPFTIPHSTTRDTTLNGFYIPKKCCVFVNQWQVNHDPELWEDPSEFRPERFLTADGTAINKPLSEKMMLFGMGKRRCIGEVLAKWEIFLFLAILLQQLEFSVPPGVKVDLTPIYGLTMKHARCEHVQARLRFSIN

[3] = biological target: Cytochrome P450 2C9 (Homo sapiens, UniProt P11712)
Sequence of Cytochrome P450 2C9 (P11712 whole entry): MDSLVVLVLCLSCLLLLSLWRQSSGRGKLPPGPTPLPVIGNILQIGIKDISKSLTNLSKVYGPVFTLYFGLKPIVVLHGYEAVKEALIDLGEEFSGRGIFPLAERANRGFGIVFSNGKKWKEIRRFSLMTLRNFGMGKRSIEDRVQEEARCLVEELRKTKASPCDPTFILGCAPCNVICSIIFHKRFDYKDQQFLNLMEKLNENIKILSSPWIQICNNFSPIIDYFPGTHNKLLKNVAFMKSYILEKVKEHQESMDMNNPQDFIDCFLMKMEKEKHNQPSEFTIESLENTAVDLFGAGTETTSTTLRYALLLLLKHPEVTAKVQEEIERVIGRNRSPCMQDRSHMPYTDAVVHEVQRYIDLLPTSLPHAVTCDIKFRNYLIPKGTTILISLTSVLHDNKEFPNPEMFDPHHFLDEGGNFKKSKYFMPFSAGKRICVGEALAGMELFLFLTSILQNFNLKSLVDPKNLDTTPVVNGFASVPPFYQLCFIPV

[4] = biological target: Cytochrome P450 3A4 (Homo sapiens, UniProt P08684);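 further: CYP3A4 tested as one member of a cytochrome P450 panel screen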
Sequence of Cytochrome P450 3A4 (P08684 whole entry): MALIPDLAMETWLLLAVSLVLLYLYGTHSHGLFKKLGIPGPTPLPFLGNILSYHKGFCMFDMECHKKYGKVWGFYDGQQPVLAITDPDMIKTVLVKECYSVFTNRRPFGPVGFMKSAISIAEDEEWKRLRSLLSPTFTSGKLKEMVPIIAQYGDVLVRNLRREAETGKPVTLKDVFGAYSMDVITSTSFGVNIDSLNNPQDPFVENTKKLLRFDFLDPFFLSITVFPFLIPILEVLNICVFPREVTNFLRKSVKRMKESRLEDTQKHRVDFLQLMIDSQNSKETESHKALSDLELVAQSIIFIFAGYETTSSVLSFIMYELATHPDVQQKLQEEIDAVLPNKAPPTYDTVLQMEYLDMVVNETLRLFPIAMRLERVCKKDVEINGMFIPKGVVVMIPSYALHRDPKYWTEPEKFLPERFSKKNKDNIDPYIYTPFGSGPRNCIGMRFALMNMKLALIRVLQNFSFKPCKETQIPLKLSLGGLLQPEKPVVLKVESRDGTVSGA

[5] = biological target: Cytochrome P450 2D6 (Homo sapiens, UniProt P10635);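 further: CYP2D6 member of a cytochrome P450 panel assay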
Sequence of Cytochrome P450 2D6 (P10635 whole entry): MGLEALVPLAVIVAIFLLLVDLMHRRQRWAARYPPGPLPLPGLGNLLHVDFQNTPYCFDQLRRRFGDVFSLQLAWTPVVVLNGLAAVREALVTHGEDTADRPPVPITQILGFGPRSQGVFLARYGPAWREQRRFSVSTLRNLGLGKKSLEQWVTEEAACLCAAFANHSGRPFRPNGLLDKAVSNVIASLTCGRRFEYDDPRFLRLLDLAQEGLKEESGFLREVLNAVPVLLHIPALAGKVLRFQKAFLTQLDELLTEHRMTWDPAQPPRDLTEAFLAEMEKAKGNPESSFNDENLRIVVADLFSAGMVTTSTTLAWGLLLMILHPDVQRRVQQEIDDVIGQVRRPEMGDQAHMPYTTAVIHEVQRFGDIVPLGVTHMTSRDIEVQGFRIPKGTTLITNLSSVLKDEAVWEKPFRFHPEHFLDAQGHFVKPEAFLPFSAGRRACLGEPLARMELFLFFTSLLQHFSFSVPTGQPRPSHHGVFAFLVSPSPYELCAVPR

[6] = biological target: T2, Heat shock factor protein 1 (Mus musculus, UniProt P38532); test: inhibition of MG132-induced HSE-luciferase signal, confirmation, cell-based, NIH3T3, luminescence, dose retest (AID 2382); type: functional;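 further: NIH3T3 fibroblasts with HSF1-driven luciferase reporter stressed by proteasome inhibitor MG132; luminescence from HSF1-driven luciferase expression after 8 hours of MG132 stress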
T2 sequence (P38532 whole entry): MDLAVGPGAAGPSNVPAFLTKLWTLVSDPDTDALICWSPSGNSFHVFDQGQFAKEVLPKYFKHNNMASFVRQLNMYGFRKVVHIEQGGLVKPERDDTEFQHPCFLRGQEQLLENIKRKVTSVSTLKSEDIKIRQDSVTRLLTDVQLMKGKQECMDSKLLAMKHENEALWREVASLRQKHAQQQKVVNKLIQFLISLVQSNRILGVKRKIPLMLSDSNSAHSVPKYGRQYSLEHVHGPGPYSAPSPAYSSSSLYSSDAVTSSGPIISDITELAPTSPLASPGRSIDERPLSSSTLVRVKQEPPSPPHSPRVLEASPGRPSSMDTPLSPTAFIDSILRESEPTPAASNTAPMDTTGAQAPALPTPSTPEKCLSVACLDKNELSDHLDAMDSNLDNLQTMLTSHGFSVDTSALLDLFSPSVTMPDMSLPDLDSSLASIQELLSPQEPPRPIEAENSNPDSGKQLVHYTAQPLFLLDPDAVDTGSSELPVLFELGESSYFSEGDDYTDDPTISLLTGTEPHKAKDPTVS

[7] = HEp-2 cell cytotoxicity, dose response, cytotoxicity control for RSV inhibitor project, HTS (AID 2410); type: functional; details: human respiratory syncytial virus
[8] = inhibitors of intracellular T. cruzi replication, confirmation, NIH3T3 host cells, beta-gal luminescence (AID 2044); type: functional, cell-based;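 further: intracellular parasites grown in NIH/3T3 mouse fibroblasts as host cells; luminescent beta-galactosidase reporter signal from transgenic T. cruzi replicating inside host cells; inhibitors lower the luminescence signal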
[9] = cytotoxicity toward NIH3T3 fibroblasts, dose response, counter-screen, cell-based, ATP luminescence, mouse fibroblasts (AID 2010); type: functional;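 further: cells exposed to compound for about 90 hours before reading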
[10] = biological target: T3, Corticotropin-releasing factor receptor 2/Corticotropin-releasing factor-binding protein (Homo sapiens, UniProt P24387+Q13324); test: activators of CRF receptor 2 with binding protein – uHTS hits, confirmation (AID 602473); type: functional; details: read-out: EC50_Mean
T3 sequence (Q13324 whole entry): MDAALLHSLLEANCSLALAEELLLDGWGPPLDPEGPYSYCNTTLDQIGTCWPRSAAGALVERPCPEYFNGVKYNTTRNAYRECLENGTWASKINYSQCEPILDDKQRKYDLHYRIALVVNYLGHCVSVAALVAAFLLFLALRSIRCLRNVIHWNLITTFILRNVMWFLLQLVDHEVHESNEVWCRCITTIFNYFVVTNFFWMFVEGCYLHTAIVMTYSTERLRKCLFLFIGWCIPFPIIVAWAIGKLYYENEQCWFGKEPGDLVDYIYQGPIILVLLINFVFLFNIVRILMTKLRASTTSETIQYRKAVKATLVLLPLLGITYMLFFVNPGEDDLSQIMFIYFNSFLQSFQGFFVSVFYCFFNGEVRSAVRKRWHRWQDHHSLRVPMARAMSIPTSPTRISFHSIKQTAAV
T3 sequence (P24387 whole entry): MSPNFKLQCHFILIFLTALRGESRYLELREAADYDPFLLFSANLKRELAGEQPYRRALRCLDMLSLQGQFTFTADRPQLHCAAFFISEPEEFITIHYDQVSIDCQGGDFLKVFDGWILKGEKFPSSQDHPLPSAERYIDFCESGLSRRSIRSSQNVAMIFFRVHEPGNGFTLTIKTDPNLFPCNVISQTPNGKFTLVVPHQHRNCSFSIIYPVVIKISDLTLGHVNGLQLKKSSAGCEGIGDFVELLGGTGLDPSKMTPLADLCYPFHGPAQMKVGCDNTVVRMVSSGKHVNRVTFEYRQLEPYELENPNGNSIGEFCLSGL

[11] = Luminescence Cell-Based Dose Retest to Confirm Inhibitors of Cancer Stem Cells. [Related pubchem assays (depositor defined):AID2717, AID2721]; type: functional; details: Homo sapiens

Sequence of Cytochrome P450 2C19 (P33261 whole entry): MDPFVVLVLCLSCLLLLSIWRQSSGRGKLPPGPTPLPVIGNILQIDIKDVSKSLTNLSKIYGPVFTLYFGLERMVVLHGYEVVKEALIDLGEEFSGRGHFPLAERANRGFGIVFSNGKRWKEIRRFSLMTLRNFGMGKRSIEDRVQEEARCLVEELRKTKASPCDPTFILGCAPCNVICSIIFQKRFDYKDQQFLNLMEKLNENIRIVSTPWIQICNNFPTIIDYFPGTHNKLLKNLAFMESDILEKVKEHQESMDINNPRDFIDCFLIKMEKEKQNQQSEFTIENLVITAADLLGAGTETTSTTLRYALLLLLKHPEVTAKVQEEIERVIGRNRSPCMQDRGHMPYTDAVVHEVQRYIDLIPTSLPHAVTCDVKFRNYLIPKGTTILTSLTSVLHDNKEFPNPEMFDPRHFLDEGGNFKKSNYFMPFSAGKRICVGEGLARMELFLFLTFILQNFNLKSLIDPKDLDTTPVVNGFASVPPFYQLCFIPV

C[C@H]1C[C@@H]2[C@H]3CCC4=CC(=O)C=C[C@@]4(C)[C@@]3(Cl)[C@@H](O)C[C@]2(C)[C@]1(OC(=O)c1ccco1)C(=O)CCl
AC50 [1]: 7.94 µM (inconclusive) | AC50 [2]: 5.01 µM (inconclusive) | AC50 [3]: 5.01 µM (inconclusive)

CC1=CC(=C2C(=O)c3ccccc3C2=O)C=C(C)O1
AC50 [4]: 14.1 µM (inconclusive)

CSc1cccc(NC(=O)Cn2cccc2)c1
AC50 [5]: 14.1 µM (inconclusive) | AC50 [4]: 22.4 µM (inconclusive)

C/C(=N\O)c1ccc2[nH]ccc2c1
AC50 [1]: 11.2 µM (inconclusive) | AC50 [4]: 22.4 µM (inconclusive)

COc1ccc(NC(=O)N2CC[C@@]3(CCCN(C(=O)Oc4ccccc4)C3)C2)cc1
AC50 [1]: 15.8 µM (inconclusive) | AC50 [4]: 39.8 µM (inconclusive) | AC50 [3]: 25.1 µM (inconclusive)

CCOc1ccc(NC(=O)c2nnn(CC(=O)Nc3ccccc3OC)c2N)cc1
AC50 [1]: 3.55 µM (inconclusive)

CCCCn1c(N)nc2ccccc21
EC50 [6]: > 195 µM (not active)

CC1(C)CC(=O)C2=C(C1)N(Cc1cccnc1)C(=O)C2(NC(=O)c1cccnc1)C(F)(F)F (centres undefined)
AC50 [1]: 15.8 µM (inconclusive) | AC50 [2]: 28.2 µM (inconclusive) | AC50 [3]: 0.0794 µM (inconclusive)

COc1ccc(-c2csc(-c3cccnc3)n2)cc1C
CC50 [7]: 38.8 µM (active)

COC(=O)C1C(O)=C(/C=N/Cc2ccccc2)C(=O)CC1(C)C (centres undefined)
AC50 [1]: 39.8 µM (inconclusive) | AC50 [3]: 14.1 µM (inconclusive)

CCOC(=O)c1nnn(CC(=O)NC(=O)Nc2ccc(F)cc2)c1C(=O)OCC
EC50 [6]: > 195 µM (not active)

O=C(Nc1cccc(F)c1)N1CC[C@@]2(CCCN(C(=O)c3cccc(F)c3)C2)C1
AC50 [2]: 12.6 µM (inconclusive) | AC50 [4]: 15.8 µM (inconclusive)

CC1(C(=O)CSc2nc3ccccc3s2)CCC(=O)O1 (centres undefined)
AC50 [2]: 3.55 µM (inconclusive) | AC50 [4]: 14.1 µM (inconclusive)

CCc1ccc(/C=C2\Oc3cc(OC(=O)N4CCOCC4)ccc3C2=O)cc1
EC50 [6]: > 195 µM (not active)

Cc1ccc(N(CC(=O)NC2CCCCC2)C(=O)CNC(=O)c2ccco2)c(C)c1
EC50 [6]: > 195 µM (not active)

N#Cc1nc(-c2ccc(OCc3ccccc3)cc2)oc1NCCN1CCOCC1
AC50 [4]: 3.98 µM (inconclusive)

N#Cc1cccc(NC(=O)N2CCCC3(CCN(C(=O)c4csnn4)CC3)C2)c1
AC50 [4]: 15.8 µM (inconclusive)

CCOc1ccc2ccccc2c1CNc1nnnn1CC
EC50 [6]: > 195 µM (not active)

COc1c(CC=C(C)C)c(O)cc2oc(=O)c3c4ccc(O)cc4oc3c12 [GLYCYROL]
CC50 [7]: 26.5 µM (active)

CCOC(=O)C1=C(N)Oc2cc(O)ccc2C1c1ccc([N+](=O)[O-])cc1 (centres undefined)
CC50 [7]: 16.9 µM (active) | EC50 [8]: 659 nM (active) | EC50 [9]: > 60 µM (not active)

COc1ccc2c(c1)OC[C@H]1[C@H]2N2C(=O)CN(Cc3ccc(Cl)cc3)C(=O)[C@@]2(C)[C@H]1c1ccccc1
CC50 [7]: 14.7 µM (active)

CCNc1ncc2ncc(=O)n(CCc3ccccc3)c2n1
AC50 [5]: 25.1 µM (inconclusive) | AC50 [4]: 15.8 µM (inconclusive) | AC50 [3]: 15.8 µM (inconclusive)

Cc1ccc(C(=O)NCCNC(=O)c2ccc(F)cc2)cn1
EC50 [10]: > 53 µM (inactive)

Cc1cc(C(=O)C(=O)NC(C)C)c(C)n1-c1ccc([N+](=O)[O-])cc1
AC50 [1]: 0.0708 µM (inconclusive)

CCC(CC)C(=O)NCCN1CCN(C(=O)C(CC)CC)CC1
AC50 [1]: 31.6 µM (inconclusive)

S=C(c1ccc(-c2ccc(Br)cc2)o1)N1CCCCC1
CC50 [7]: 29.3 µM (active)

Cc1nn(-c2ccccc2)c(N2CCCCC2)c1/C=N/O
AC50 [11]: 3.97 µM (active) | AC50 [4]: 14.1 µM (inconclusive) | AC50 [3]: 7.08 µM (inconclusive)

CCOCCCNC(=O)c1cc(C)nn1-c1ccccc1
EC50 [6]: > 195 µM (not active)

CCOc1ccc(S(=O)(=O)N2CCN(C(=O)c3cc(-c4ccccc4)nn3-c3ccccc3)CC2)cc1
CC50 [7]: 48 µM (active)

CCNc1ncc2nc(-c3cccs3)c(=O)n(Cc3ccc(F)cc3)c2n1
AC50 [1]: 20 µM (inconclusive) | AC50 [5]: 31.6 µM (inconclusive) | AC50 [2]: 10 µM (inconclusive) | AC50 [3]: 31.6 µM (inconclusive)

Cn1c(=O)c(CCc2ccccc2)nc2cnc(N3CCNCC3)nc21
AC50 [4]: 0.0251 µM (inconclusive) | AC50 [3]: 25.1 µM (inconclusive)

Cc1noc(/C=C/N(C)C)c1S(=O)(=O)N1CCN(c2ccc(F)cc2)CC1
EC50 [6]: > 195 µM (not active)

COc1ccc(NC(=O)N2CCCC2C(=O)Nc2ccccc2)cc1 (centres undefined)
AC50 [1]: 20 µM (inconclusive) | AC50 [3]: 28.2 µM (inconclusive)

COc1cc(OC)c(C(=O)Nc2ccccc2-c2ccccc2)cc1OC
CC50 [7]: 18.9 µM (active)

O=S(=O)(NC1CC1)c1ccc(S(=O)(=O)N2CCC(c3nc(O)c4nnn(Cc5cccc(F)c5)c4n3)CC2)cc1
CC50 [7]: 24.8 µM (active)

CCOc1ccc(N(CC(=O)NC2CCCCC2)C(=O)CCC(=O)Nc2nc(C)cs2)cc1
EC50 [6]: > 195 µM (not active)

Cc1nn(C)c(Cl)c1CN1CCCC(CO)(Cc2cccc(Cl)c2)C1 (centres undefined)
CC50 [7]: 43.6 µM (active)

Cc1ccc(C(C)C)c2c1C(c1ccc3c(c1)OCO3)CC(=O)O2 (centres undefined)
EC50 [10]: 4.51 µM (active)

COC(=O)C(NC(=O)c1ccccc1)=C1C=C(C)OC(C)=C1
AC50 [2]: 14.1 µM (inconclusive) | AC50 [4]: 22.4 µM (inconclusive)

Cc1ccc(-c2nc3ccccc3c(=O)n2-c2ncccc2C)cc1
AC50 [1]: 28.2 µM (inconclusive) | AC50 [3]: 17.8 µM (inconclusive)

COCCn1c(=O)c(-c2ccccc2)nc2cnc(Oc3ccccc3)nc21
AC50 [4]: 31.6 µM (inconclusive)

Cc1cccc(N2CCN(C(=O)Cc3ccc(-n4c(=O)[nH]c5ccsc5c4=O)cc3)CC2)c1C
CC50 [7]: 30.2 µM (active)

CC(=O)OC[C@@H]1O[C@H](CCO/N=C(\C)CCN2CCc3nc(-c4ccccc4)c(-c4ccccc4)cc3C2)C=C[C@@H]1OC(C)=O
AC50 [4]: 3.98 µM (inconclusive) | AC50 [3]: 3.16 µM (inconclusive)

CSCCC(NC(=O)c1ccco1)C(=O)N1CC=C(c2ccccc2)CC1 (centres undefined)
EC50 [10]: 6.78 µM (active)
